Measurements as given in the kinase profiling compilation of Christmann-Franck et al. (2016).

Assays:
Test in all cases: radiometric filter-binding kinase assay, Kinase HotSpot
Conditions in all cases: compound 0.5 µM; ATP 10 µM
[1] = biological target: MAP3K3 (human) (UniProt Q99759)
[2] = biological target: MINK1 (human) (UniProt Q8N4C8)
[3] = biological target: CAMK1G (human) (UniProt Q96NX5)
[4] = biological target: DYRK4 (human) (UniProt Q9NR20)
[5] = biological target: PRKCZ (human) (UniProt Q05513)
[6] = biological target: MAPKAPK5 (human) (UniProt Q8IW41)
[7] = biological target: GSK3B (human) (UniProt P49841)
[8] = biological target: ZAP70 (human) (UniProt P43403)
[9] = biological target: PDPK1 (human) (UniProt O15530)
[10] = biological target: STK11 (human) (UniProt Q15831)
[11] = biological target: IKBKB (human) (UniProt O14920)
[12] = biological target: MAP3K2 (human) (UniProt Q9Y2U5)
[13] = biological target: RPS6KA6 KD1 KD2 (human) (UniProt Q9UK32)
[14] = biological target: MARK4 (human) (UniProt Q96L34)
[15] = biological target: RET (human) (UniProt P07949)
[16] = biological target: RIPK2 (human) (UniProt O43353)
[17] = biological target: CDC42BPB (human) (UniProt Q9Y5S2)
[18] = biological target: TGFBR1 (human) (UniProt P36897)
[19] = biological target: PAK2 (human) (UniProt Q13177)
[20] = biological target: DSTYK (human) (UniProt Q6XUX3)
[21] = biological target: PRKCD (human) (UniProt Q05655)
[22] = biological target: PRKX (human) (UniProt P51817)
[23] = biological target: MAPK13 (human) (UniProt O15264)
[24] = biological target: PTK2 (human) (UniProt Q05397)
[25] = biological target: TSSK2 (human) (UniProt Q96PF2)
[26] = biological target: RPS6KA5 KD2 (human) (UniProt O75582)
[27] = biological target: BTK (human) (UniProt Q06187)
[28] = biological target: MAP3K7 TAB1 (human) (UniProt O43318+Q15750)
[29] = biological target: MAP4K5 (human) (UniProt Q9Y4K4)
[30] = biological target: TXK (human) (UniProt P42681)
[31] = biological target: FRK (human) (UniProt P42685)
[32] = biological target: PDGFRB (human) (UniProt P09619)
[33] = biological target: AURKC (human) (UniProt Q9UQB9)
[34] = biological target: CLK1 (human) (UniProt P49759)
[35] = biological target: IGF1R (human) (UniProt P08069)
[36] = biological target: PLK3 (human) (UniProt Q9H4B4)
[37] = biological target: TAOK2 (human) (UniProt Q9UL54)
[38] = biological target: EPHB2 (human) (UniProt P29323)
[39] = biological target: LCK (human) (UniProt P06239)
[40] = biological target: LIMK1 (human) (UniProt P53667)
[41] = biological target: MERTK (human) (UniProt Q12866)
[42] = biological target: MST4 (human) (UniProt Q9P289)

PTK2 (human), sequence (Q05397 whole entry, looked up): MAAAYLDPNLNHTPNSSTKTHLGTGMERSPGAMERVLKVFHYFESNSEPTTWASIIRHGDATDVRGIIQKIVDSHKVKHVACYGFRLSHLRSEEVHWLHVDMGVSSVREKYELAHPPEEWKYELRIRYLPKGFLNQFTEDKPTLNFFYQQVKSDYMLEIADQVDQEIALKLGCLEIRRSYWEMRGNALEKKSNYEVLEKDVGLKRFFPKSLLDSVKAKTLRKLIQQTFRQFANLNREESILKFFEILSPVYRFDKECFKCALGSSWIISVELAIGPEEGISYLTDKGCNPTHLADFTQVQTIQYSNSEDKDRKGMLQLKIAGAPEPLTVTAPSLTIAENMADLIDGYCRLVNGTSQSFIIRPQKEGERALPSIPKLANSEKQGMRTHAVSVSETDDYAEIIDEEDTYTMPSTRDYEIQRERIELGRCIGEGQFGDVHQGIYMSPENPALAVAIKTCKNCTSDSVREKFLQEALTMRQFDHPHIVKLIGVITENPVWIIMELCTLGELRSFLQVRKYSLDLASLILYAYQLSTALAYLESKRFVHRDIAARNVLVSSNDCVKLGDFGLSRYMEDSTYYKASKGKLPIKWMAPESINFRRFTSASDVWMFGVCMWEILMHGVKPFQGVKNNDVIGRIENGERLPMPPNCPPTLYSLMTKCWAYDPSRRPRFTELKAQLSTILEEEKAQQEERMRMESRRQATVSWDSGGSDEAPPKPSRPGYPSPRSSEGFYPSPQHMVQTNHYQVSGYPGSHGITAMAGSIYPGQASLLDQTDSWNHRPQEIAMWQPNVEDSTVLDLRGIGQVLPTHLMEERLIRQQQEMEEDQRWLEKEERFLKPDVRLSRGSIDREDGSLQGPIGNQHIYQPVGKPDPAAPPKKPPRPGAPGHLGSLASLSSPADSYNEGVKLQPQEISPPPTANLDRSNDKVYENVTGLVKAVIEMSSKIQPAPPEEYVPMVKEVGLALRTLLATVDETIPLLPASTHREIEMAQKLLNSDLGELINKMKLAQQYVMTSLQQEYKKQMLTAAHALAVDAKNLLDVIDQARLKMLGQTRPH
IKBKB (human), sequence (O14920 whole entry, looked up): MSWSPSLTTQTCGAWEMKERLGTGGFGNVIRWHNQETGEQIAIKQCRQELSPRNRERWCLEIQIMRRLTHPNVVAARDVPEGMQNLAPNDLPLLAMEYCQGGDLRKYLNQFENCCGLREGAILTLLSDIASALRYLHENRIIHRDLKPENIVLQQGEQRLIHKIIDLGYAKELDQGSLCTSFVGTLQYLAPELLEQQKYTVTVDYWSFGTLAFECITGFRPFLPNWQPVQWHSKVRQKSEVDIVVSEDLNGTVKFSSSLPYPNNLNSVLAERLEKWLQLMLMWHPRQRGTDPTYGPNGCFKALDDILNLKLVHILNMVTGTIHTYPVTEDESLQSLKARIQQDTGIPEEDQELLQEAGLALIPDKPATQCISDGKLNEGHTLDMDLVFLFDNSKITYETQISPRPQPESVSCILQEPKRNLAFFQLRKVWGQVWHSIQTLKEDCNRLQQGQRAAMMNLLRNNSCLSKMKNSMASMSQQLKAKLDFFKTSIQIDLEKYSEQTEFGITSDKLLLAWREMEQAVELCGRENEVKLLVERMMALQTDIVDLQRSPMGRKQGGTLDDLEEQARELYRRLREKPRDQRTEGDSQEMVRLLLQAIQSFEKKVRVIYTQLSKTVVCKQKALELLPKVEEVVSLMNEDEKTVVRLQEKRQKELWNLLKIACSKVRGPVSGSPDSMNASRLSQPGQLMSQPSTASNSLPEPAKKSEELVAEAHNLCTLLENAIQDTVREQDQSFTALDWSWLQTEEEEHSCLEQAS
MARK4 (human), sequence (Q96L34 whole entry, looked up): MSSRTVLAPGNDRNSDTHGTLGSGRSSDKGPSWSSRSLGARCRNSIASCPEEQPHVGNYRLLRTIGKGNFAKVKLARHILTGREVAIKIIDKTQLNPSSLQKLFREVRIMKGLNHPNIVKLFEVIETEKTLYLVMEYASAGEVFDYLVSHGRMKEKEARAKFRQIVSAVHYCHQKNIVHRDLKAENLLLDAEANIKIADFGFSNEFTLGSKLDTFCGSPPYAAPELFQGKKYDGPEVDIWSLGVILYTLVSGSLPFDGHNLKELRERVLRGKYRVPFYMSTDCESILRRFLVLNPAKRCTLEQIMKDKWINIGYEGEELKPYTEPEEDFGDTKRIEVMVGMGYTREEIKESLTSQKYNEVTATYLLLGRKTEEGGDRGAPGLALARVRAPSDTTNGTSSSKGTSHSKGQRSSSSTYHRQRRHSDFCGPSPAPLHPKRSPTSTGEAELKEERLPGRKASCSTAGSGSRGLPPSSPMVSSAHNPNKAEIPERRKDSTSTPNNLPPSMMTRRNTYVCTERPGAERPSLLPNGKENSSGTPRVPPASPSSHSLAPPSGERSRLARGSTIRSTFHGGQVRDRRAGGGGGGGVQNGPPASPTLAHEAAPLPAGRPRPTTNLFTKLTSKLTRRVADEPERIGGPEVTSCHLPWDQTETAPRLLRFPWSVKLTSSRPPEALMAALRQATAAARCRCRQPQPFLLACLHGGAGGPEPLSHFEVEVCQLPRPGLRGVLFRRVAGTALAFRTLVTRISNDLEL
LCK (human), sequence (P06239 whole entry, looked up): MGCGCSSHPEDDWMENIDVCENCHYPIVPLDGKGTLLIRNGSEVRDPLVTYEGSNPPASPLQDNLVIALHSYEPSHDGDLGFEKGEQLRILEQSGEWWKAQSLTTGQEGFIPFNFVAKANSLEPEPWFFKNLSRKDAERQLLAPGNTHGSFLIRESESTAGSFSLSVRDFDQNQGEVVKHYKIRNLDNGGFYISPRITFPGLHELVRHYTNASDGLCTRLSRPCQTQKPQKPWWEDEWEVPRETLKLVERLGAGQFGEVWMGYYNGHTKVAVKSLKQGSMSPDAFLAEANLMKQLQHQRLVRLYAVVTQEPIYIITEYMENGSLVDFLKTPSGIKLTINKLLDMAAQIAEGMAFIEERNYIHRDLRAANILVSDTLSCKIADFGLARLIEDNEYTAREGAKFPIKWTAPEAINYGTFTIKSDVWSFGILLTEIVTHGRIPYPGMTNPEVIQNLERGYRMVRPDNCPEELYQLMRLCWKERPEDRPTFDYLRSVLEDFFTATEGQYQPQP
PDGFRB (human), sequence (P09619 whole entry, looked up): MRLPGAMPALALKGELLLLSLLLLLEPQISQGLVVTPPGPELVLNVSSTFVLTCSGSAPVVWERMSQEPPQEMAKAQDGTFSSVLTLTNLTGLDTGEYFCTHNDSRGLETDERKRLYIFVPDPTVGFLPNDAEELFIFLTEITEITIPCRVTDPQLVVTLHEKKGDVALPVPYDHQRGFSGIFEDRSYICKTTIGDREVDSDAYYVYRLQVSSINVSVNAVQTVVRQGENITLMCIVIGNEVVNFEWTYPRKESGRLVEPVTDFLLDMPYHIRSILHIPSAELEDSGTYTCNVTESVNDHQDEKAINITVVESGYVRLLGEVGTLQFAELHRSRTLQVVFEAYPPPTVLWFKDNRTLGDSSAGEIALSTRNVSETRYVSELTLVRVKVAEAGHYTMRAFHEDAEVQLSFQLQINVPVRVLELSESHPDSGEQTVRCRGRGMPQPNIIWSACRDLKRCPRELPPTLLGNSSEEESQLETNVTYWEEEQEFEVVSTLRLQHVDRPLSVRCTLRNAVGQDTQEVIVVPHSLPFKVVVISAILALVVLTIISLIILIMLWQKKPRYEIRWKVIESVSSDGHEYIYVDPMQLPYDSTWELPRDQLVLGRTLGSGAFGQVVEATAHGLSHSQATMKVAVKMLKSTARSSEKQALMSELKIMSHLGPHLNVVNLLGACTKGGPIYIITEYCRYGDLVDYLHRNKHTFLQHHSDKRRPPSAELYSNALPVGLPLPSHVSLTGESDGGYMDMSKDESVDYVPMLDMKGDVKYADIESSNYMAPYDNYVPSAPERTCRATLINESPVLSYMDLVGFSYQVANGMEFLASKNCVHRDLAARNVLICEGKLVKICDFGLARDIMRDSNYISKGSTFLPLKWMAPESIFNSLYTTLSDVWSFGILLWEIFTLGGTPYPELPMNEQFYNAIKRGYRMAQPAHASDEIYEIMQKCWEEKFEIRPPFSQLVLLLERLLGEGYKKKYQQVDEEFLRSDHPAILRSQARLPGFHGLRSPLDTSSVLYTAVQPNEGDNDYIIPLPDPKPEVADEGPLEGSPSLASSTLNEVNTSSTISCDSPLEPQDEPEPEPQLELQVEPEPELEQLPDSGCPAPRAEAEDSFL
STK11 (human), sequence (Q15831 whole entry, looked up): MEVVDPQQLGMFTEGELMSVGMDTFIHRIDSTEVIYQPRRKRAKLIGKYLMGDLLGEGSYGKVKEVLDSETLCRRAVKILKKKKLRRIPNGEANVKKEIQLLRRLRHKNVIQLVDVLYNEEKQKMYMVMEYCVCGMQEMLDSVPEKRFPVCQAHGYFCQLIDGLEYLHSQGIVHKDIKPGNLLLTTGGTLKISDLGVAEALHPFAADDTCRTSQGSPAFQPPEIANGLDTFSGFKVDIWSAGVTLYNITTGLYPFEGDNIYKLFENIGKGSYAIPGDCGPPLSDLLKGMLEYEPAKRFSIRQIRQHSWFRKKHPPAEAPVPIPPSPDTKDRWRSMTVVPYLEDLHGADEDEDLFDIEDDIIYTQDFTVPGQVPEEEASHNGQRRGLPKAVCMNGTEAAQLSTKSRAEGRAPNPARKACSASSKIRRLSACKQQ
PRKX (human), sequence (P51817 whole entry, looked up): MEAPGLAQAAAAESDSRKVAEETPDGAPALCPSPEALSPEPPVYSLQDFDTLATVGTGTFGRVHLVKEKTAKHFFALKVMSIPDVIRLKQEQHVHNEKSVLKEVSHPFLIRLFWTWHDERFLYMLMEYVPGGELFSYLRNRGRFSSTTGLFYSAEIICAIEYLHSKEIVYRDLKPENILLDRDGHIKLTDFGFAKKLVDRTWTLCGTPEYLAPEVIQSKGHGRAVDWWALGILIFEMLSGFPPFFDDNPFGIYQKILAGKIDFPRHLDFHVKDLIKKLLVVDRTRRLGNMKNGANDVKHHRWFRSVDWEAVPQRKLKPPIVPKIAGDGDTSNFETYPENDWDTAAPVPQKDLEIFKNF

**Q.** Which results are given for `CN(C)c1ccc(/C=C2\C(=O)Nc3ccccc32)cc1`?
**A.** residual activity [1]: 104%; residual activity [2]: 79%; residual activity [3]: 99.9%; residual activity [4]: 94.8%; residual activity [5]: 112%; residual activity [6]: 98.6%; residual activity [7]: 111%; residual activity [8]: 89.9%; residual activity [9]: 82.3%; residual activity [10]: 99.4%; residual activity [11]: 105%; residual activity [12]: 99.8%; residual activity [13]: 93.9%; residual activity [14]: 97%; residual activity [15]: 78%; residual activity [16]: 87.8%; residual activity [17]: 89.5%; residual activity [18]: 96.7%; residual activity [19]: 102%; residual activity [20]: 103%; residual activity [21]: 95.6%; residual activity [22]: 104%; residual activity [23]: 97.1%; residual activity [24]: 104%; residual activity [25]: 101%; residual activity [26]: 98.7%; residual activity [27]: 104%; residual activity [28]: 100%; residual activity [29]: 84.5%; residual activity [30]: 96.1%; residual activity [31]: 102%; residual activity [32]: 85.8%; residual activity [33]: 91.1%; residual activity [34]: 103%; residual activity [35]: 101%; residual activity [36]: 97%; residual activity [37]: 102%; residual activity [38]: 86.5%; residual activity [39]: 93%; residual activity [40]: 97.7%; residual activity [41]: 92.7%; residual activity [42]: 90.9%

**Q.** For `O=C1C(Cl)=C(N2C(=O)CCC2=O)C(=O)c2ccccc21`, which residual activity [1] is on record?
**A.** 95.5%

**Q.** And the residual activity [2]?
**A.** 95.6%

**Q.** And the residual activity [3]?
**A.** 98.2%

**Q.** And the residual activity [4]?
**A.** 94.1%

**Q.** What about the residual activity [5] of the same compound?
**A.** 114%

**Q.** What about the residual activity [6] of the same compound?
**A.** 73.6%

**Q.** And the residual activity [7]?
**A.** 100%

**Q.** What about the residual activity [8] of the same compound?
**A.** 93.8%

**Q.** What about the residual activity [9] of the same compound?
**A.** 100%

**Q.** And the residual activity [10]?
**A.** 99.8%

**Q.** What about the residual activity [11] of the same compound?
**A.** 101%

**Q.** And the residual activity [12]?
**A.** 108%

**Q.** What about the residual activity [13] of the same compound?
**A.** 99.9%

**Q.** What about the residual activity [14] of the same compound?
**A.** 99.6%

**Q.** What about the residual activity [15] of the same compound?
**A.** 98%

**Q.** And the residual activity [16]?
**A.** 84.8%

**Q.** And the residual activity [17]?
**A.** 98.6%

**Q.** And the residual activity [18]?
**A.** 101%

**Q.** What about the residual activity [19] of the same compound?
**A.** 104%

**Q.** What about the residual activity [20] of the same compound?
**A.** 95.4%

**Q.** And the residual activity [21]?
**A.** 97.8%

**Q.** What about the residual activity [22] of the same compound?
**A.** 103%

**Q.** What about the residual activity [23] of the same compound?
**A.** 106%

**Q.** What about the residual activity [24] of the same compound?
**A.** 98.4%

**Q.** What about the residual activity [25] of the same compound?
**A.** 103%

**Q.** What about the residual activity [26] of the same compound?
**A.** 101%

**Q.** And the residual activity [27]?
**A.** 103%

**Q.** And the residual activity [28]?
**A.** 99.5%

**Q.** What about the residual activity [29] of the same compound?
**A.** 90.4%

**Q.** And the residual activity [30]?
**A.** 95.5%

**Q.** And the residual activity [31]?
**A.** 103%

**Q.** What about the residual activity [32] of the same compound?
**A.** 103%

**Q.** And the residual activity [33]?
**A.** 97.9%

**Q.** And the residual activity [34]?
**A.** 103%

**Q.** And the residual activity [35]?
**A.** 107%

**Q.** And the residual activity [36]?
**A.** 96.6%

**Q.** And the residual activity [37]?
**A.** 99.2%

**Q.** What about the residual activity [38] of the same compound?
**A.** 98.7%

**Q.** And the residual activity [39]?
**A.** 106%

**Q.** What about the residual activity [40] of the same compound?
**A.** 92.5%

**Q.** And the residual activity [41]?
**A.** 90.3%

**Q.** And the residual activity [42]?
**A.** 98.3%
